From patent publication US9522903B2 (priority 2010, dated 2016)

Experiments:
[1] = mouse, in vivo, ip
[2] = test system: rat vascular ring system precontracted with norepinephrine
[3] = test system: rat model of myocardial ischemia-reperfusion injury (MIRI); conditions: in vivo
[4] = test system: murine model of renal ischemia-reperfusion injury; design: species or system mice; conditions: mouse, in vivo

2-cyano-1-(1-hydroxy-2,2,5,5-tetramethylpyrrolidin-3-yl)-3-(pyridin-3-yl)guanidine [compound 2]
effect on blood glucose levels compared with saline vehicle group [1]: did not exhibit any significant effect | ED50 (ex vivo vasodilator potency) compared to pinacidil [2]: one log greater than that of pinacidil | histologic features of injury (myocyte necrosis, edema, neutrophil infiltration) [3]: profoundly attenuated virtually all histologic features of injury | mean arterial pressure (systemic hypotension) [3]: did not produce systemic hypotension | myocardial myeloperoxidase (MPO) [3]: significantly reduced | tissue infarction (infarct size) [3]: significantly reduced | elevation in plasma blood urea nitrogen (BUN) [4]: profoundly attenuated | elevation in plasma creatinine [4]: profoundly attenuated | elevation in renal myeloperoxidase (MPO) [4]: profoundly attenuated | protection against severe renal tubular necrosis (histologic studies) [4]: near total protection
